One experiment concerns the target Bile salt export pump (Homo sapiens, UniProt O95342). The experiment is described as follows: Inhibition of human BSEP overexpressed in Sf9 cell membrane vesicles assessed as uptake of [3H]-taurocholate in presence of ATP measured after 15 to 20 mins by membrane vesicle transport assay. The experiment is classed as ADME, cell-based.
In experiment [1] the target is ATP-binding cassette sub-family C member 3 (Homo sapiens, UniProt O15438). The experiment is described as follows: Inhibition of human MRP3 overexpressed in Sf9 insect cell membrane vesicles assessed as uptake of [3H]-estradiol-17beta-D-glucuronide in presence of ATP and GSH measured after 10 mins by membrane vesicle transport assay. The experiment is classed as ADME, cell-based.
Chain of ATP-binding cassette sub-family C member 3 (O15438 whole entry): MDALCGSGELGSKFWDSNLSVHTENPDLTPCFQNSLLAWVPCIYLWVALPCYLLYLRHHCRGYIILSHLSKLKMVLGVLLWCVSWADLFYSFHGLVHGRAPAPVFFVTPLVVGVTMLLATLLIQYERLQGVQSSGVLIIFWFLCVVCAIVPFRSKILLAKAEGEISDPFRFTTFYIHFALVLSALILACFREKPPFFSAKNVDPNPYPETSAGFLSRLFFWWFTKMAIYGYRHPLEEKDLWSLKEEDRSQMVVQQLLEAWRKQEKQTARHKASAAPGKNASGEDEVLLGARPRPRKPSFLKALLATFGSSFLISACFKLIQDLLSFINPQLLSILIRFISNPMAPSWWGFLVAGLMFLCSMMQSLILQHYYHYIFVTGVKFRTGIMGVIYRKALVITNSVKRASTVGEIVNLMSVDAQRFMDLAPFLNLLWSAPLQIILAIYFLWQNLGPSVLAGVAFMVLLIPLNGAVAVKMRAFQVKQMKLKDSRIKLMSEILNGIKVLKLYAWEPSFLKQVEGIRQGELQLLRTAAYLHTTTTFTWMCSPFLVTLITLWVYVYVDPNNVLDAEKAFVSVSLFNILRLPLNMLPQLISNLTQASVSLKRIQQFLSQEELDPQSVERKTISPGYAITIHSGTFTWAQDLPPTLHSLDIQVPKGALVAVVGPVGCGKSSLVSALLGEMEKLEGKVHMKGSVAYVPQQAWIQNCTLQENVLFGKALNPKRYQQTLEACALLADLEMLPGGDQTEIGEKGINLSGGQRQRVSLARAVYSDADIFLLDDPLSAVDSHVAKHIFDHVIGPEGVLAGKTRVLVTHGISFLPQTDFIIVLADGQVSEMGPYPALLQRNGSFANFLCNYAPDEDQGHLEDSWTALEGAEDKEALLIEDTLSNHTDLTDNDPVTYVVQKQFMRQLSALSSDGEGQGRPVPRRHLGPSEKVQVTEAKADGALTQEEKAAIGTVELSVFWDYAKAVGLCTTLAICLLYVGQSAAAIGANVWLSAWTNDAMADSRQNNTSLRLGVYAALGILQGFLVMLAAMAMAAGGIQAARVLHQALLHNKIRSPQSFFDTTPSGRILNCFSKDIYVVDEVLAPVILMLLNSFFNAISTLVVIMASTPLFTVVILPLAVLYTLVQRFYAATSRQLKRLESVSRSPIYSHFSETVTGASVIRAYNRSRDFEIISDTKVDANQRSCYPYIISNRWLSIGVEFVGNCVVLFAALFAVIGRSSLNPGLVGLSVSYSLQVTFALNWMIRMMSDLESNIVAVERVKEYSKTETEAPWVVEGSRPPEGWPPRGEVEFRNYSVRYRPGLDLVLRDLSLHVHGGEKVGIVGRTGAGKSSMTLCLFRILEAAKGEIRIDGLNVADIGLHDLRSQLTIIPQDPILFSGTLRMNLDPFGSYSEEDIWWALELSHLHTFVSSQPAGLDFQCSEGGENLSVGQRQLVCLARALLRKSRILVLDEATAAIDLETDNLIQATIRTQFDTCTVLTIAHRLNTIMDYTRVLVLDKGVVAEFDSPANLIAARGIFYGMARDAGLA

The target of experiment [2] is T1, ATP-binding cassette sub-family C member 4 (Homo sapiens, UniProt O15439).
T1 sequence (O15439 whole entry): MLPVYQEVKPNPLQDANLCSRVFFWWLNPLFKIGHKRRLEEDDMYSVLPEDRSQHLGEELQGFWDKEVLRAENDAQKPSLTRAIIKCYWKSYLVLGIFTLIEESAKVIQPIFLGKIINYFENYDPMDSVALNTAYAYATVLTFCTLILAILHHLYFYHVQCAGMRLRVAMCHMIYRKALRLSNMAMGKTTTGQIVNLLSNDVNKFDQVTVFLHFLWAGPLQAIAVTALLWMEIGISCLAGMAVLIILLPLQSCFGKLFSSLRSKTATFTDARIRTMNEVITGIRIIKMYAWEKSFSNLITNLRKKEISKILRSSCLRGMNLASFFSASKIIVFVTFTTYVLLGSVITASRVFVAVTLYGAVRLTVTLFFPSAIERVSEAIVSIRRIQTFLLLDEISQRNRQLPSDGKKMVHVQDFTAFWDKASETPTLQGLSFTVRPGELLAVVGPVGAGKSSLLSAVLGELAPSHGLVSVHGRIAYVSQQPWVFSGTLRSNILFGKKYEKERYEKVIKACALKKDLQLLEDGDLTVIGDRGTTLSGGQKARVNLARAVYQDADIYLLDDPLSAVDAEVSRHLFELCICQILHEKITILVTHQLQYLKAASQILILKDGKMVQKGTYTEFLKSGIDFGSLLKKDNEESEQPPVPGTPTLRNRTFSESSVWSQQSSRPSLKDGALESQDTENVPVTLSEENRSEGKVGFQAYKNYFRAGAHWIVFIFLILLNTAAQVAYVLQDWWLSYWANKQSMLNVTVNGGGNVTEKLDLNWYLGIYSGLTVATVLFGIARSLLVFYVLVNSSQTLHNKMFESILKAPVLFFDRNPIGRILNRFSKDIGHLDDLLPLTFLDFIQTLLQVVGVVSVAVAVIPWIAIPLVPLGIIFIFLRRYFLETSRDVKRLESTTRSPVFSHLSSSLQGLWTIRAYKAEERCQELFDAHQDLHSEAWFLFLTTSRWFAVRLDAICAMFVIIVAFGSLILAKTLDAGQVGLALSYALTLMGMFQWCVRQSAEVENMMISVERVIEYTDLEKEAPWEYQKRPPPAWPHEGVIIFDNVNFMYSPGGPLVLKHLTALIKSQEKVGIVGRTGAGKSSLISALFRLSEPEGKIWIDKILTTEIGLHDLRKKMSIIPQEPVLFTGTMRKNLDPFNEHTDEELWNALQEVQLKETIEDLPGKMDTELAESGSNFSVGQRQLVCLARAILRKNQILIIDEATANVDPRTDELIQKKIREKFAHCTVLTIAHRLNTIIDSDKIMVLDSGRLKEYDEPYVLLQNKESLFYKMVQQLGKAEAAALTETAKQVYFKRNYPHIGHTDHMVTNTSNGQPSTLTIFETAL
In words: Inhibition of human MRP4 overexpressed in Sf9 cell membrane vesicles assessed as uptake of [3H]-estradiol-17beta-D-glucuronide in presence of ATP and GSH measured after 20 mins by membrane vesicle transport assay. It counts as ADME, cell-based.

In experiment [3] the target is ATP-binding cassette sub-family C member 2 (Homo sapiens, UniProt Q92887). The experiment is described as follows: Inhibition of human MRP2 overexpressed in Sf9 cell membrane vesicles assessed as uptake of [3H]-estradiol-17beta-D-glucuronide in presence of ATP and GSH measured after 20 mins by membrane vesicle transport assay.
Chain of ATP-binding cassette sub-family C member 2 (Q92887 whole entry): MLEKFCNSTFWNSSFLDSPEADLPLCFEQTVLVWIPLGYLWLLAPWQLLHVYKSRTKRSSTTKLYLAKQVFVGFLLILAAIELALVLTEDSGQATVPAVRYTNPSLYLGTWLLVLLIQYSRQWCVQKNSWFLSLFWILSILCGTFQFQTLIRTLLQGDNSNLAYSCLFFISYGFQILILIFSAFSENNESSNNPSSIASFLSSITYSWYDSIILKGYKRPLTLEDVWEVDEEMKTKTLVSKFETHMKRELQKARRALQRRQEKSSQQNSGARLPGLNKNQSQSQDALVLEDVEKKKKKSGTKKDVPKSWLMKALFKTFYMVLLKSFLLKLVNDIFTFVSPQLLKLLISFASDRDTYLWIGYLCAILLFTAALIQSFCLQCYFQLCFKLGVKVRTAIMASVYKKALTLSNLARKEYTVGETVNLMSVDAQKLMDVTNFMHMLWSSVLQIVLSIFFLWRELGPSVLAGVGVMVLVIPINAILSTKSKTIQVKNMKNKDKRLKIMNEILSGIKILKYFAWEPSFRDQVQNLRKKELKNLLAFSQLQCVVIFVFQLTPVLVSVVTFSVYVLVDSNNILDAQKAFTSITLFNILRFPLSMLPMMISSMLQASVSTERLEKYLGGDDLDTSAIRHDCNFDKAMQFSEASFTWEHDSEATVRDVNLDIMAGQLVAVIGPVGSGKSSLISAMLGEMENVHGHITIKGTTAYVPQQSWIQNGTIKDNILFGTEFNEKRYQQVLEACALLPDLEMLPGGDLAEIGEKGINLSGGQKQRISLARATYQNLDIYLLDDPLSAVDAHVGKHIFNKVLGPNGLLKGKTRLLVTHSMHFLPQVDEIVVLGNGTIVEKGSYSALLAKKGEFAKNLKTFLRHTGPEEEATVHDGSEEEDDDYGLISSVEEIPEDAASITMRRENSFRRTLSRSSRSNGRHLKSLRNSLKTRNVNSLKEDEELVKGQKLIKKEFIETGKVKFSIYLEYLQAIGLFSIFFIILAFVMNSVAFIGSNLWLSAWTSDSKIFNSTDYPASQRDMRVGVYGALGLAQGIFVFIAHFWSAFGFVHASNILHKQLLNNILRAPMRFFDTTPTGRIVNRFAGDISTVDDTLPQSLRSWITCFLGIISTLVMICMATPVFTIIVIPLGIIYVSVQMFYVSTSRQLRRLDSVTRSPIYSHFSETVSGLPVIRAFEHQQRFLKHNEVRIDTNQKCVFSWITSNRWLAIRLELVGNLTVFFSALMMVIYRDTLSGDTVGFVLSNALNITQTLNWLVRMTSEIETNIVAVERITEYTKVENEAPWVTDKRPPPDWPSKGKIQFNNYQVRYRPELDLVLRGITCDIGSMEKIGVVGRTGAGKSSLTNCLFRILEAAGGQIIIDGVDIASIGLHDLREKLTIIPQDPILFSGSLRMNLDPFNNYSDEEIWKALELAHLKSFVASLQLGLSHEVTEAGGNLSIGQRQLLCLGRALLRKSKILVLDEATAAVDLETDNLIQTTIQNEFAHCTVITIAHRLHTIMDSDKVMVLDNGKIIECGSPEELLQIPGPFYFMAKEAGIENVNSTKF

Where a name gives a salt, the structure may show the parent alone. A value given as a limit tells only on which side of the number the result lay.

Chain of Bile salt export pump (O95342 whole entry): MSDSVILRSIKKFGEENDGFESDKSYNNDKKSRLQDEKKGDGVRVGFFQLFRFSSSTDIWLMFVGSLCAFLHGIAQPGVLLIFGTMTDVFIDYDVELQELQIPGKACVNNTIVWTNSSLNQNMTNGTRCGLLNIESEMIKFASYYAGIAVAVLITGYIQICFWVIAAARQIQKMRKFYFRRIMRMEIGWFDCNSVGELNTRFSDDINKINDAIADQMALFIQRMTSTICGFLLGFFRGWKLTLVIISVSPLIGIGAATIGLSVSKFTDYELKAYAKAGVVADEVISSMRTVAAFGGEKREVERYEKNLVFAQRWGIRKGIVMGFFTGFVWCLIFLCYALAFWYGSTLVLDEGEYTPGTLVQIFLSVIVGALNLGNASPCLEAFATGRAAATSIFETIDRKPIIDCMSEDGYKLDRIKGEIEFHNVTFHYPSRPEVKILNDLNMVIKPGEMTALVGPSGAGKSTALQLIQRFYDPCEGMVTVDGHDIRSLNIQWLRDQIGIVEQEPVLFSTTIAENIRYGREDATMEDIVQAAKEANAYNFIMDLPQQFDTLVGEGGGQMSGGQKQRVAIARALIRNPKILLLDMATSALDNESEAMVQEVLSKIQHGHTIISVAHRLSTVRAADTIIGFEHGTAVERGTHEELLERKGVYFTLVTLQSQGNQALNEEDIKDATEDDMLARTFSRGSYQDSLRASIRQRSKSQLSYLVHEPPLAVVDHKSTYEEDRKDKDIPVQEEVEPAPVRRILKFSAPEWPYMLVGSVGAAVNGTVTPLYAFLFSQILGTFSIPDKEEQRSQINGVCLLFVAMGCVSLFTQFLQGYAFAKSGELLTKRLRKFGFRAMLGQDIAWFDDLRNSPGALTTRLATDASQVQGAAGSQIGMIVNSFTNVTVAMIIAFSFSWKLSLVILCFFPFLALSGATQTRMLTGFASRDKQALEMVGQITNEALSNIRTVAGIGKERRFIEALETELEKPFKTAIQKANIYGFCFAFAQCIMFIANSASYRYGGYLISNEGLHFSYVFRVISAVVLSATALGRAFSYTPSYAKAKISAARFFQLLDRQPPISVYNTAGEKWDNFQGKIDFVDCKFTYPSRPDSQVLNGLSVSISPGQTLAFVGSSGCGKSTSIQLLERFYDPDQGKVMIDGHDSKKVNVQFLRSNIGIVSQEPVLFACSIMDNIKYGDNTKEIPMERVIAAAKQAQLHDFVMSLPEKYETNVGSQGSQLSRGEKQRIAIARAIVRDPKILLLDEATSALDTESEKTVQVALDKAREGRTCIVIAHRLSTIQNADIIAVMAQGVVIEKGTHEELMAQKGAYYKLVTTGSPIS

As a reminder, the IC50 is the point on the concentration scale where inhibition reaches its midpoint. Take `CC1=C(CC(=O)O)c2cc(F)ccc2/C1=C\c1ccc([S+](C)[O-])cc1` (configuration not stated): the IC50 (at Bile salt export pump; in experiment [1]; in experiment [2]) was over 133 µM each time.

`CCOC(=O)[C@H](CCc1ccccc1)N[C@@H](C)C(=O)N1Cc2ccccc2C[C@H]1C(=O)O`: the IC50 was 94 µM at Bile salt export pump, over 133 µM in experiment [1] and over 133 µM in experiment [2].

Consider `COc1cccc([C@]2(O)CCCC[C@H]2CN(C)C)c1`, for which the IC50 on Bile salt export pump was over 133 µM.

On to `C[C@](N)(Cc1ccc(O)c(O)c1)C(=O)O`, for which the IC50 is over 133 µM at Bile salt export pump, 41.2 µM in experiment [1] and 8.08 µM in experiment [2].

With `CS(=O)(=O)N1CCN(Cc2cc3nc(-c4cccc5[nH]ncc45)nc(N4CCOCC4)c3s2)CC1`, the IC50 is over 133 µM in experiment [3], 15.2 µM on Bile salt export pump, over 133 µM in experiment [1] and 2.7 µM in experiment [2].

In the case of `C[C@@H](O)[C@H]1C(=O)N2C(C(=O)O)=C(SCCN=CN)C[C@H]12`, the IC50 at Bile salt export pump is over 133 µM.

On to `CC(=O)Nc1ccc(S(=O)(=O)Nc2ccc([N+](=O)[O-])cc2)cc1`, for which the IC50 (on Bile salt export pump; in experiment [1]; in experiment [2]) was over 133 µM throughout.

Consider `C=CC1=C(C(=O)O)N2C(=O)[C@@H](NC(=O)/C(=N\O)c3csc(N)n3)[C@H]2SC1`, for which the IC50 in experiment [3] was over 133 µM; on Bile salt export pump, over 133 µM; in experiment [1] it was over 133 µM; in experiment [2], 11.6 µM.

With `O=C(O)COC(=O)Cc1ccccc1Nc1c(Cl)cccc1Cl` [ACECLOFENAC], the IC50 was 105 µM on Bile salt export pump, over 133 µM in experiment [1] and over 133 µM in experiment [2].

For the compound `COc1cc2nc(N(C)CCCNC(=O)C3CCCO3)nc(N)c2cc1OC` (configuration not stated) [ALFUZOSIN HYDROCHLORIDE], the IC50 at Bile salt export pump was over 133 µM.

In the case of `COCCCOc1cc(C[C@@H](C[C@H](N)[C@@H](O)C[C@H](C(=O)NCC(C)(C)C(N)=O)C(C)C)C(C)C)ccc1OC` [ALISKIREN FUMARATE], the IC50 at Bile salt export pump was over 133 µM.

In the case of `CCCCCC[C@H]1C(=O)O[C@H](C)[C@H](NC(=O)c2cccc(NC=O)c2O)C(=O)O[C@@H](C)[C@@H]1OC(=O)CC(C)C` [ANTIMYCIN A], the IC50 at Bile salt export pump was 59.6 µM; in experiment [1] it was over 133 µM; in experiment [2], over 133 µM.

On to `Nc1c(CC(=O)O)cccc1C(=O)c1ccc(Br)cc1` [BROMFENAC], for which the IC50 (at Bile salt export pump; in experiment [1]; in experiment [2]) was over 133 µM throughout.

Regarding `CCCCNc1cc(C(=O)O)cc(S(N)(=O)=O)c1Oc1ccccc1` [BUMETANIDE], the IC50 (on Bile salt export pump; in experiment [1]; in experiment [2]) was over 133 µM each time.

In the case of `Cc1cc(C2CCCCC2)n(O)c(=O)c1` [CICLOPIROX], the IC50 (on Bile salt export pump; in experiment [1]; in experiment [2]) was over 133 µM in each case.

Take `CC(C)(Oc1ccc(C2CC2(Cl)Cl)cc1)C(=O)O` (configuration not stated) [CIPROFIBRATE]: the IC50 (on Bile salt export pump; in experiment [1]; in experiment [2]) was over 133 µM each time.

`O=C(O)[C@H]1/C(=C/CO)O[C@@H]2CC(=O)N21` [CLAVULANATE POTASSIUM]: the IC50 at Bile salt export pump was over 133 µM.

With `CN1C(=O)CN=C(c2ccccc2)c2cc(Cl)ccc21` [DIAZEPAM], the half-maximal inhibitory concentration (IC50) (at Bile salt export pump; in experiment [1]; in experiment [2]) was over 133 µM in each case.

Regarding `Cc1ccc(C)c(OCCCC(C)(C)C(=O)O)c1` [GEMFIBROZIL], the IC50 (at Bile salt export pump; in experiment [1]; in experiment [2]) was over 133 µM in each case.

`Nc1nnc(-c2cccc(Cl)c2Cl)c(N)n1` [LAMOTRIGINE]: the IC50 at Bile salt export pump is over 133 µM.

On to `N#C/C(=C1/SCC(c2ccccc2Cl)S1)n1ccnc1` (configuration not stated) [LANOCONAZOLE], for which the IC50 is 9.65 µM at Bile salt export pump, over 133 µM in experiment [1] and over 133 µM in experiment [2].

For the compound `N#Cc1ccc(C(c2ccc(C#N)cc2)n2cncn2)cc1` [LETROZOLE], the IC50 on Bile salt export pump is over 133 µM.

On to `Cc1cnc(NC(=O)C2=C(O)c3ccccc3S(=O)(=O)N2C)s1` [MELOXICAM], for which the IC50 is 77.5 µM on Bile salt export pump, over 133 µM in experiment [1] and over 133 µM in experiment [2].

As for `Sc1ncnc2nc[nH]c12` [MERCAPTOPURINE ANHYDROUS], the IC50 at Bile salt export pump is over 133 µM.

With `CCOC(=O)C1=C(C)NC(C)=C(C(=O)OC)C1c1cccc([N+](=O)[O-])c1` (configuration not stated) [NITRENDIPINE], the IC50 on Bile salt export pump was 22.5 µM; in experiment [1], over 133 µM; in experiment [2], over 133 µM.

Consider `CC(C)(S)[C@@H](N)C(=O)O` [PENICILLAMINE], for which the IC50 at Bile salt export pump was over 133 µM.

For the compound `OC[C@H]1O[C@@H](n2cnc3c2NC=NC[C@H]3O)C[C@@H]1O` [PENTOSTATIN], the IC50 at Bile salt export pump is over 133 µM.

With `COc1cc2nc(N3CCN(C(=O)c4ccco4)CC3)nc(N)c2cc1OC` [PRAZOSIN], the IC50 on Bile salt export pump was over 133 µM; in experiment [1] it was over 133 µM; in experiment [2] it was 12.5 µM.

Turning to `CC(=O)[C@H]1[C@H](C#N)C[C@H]2[C@@H]3CC=C4C[C@@H](O)CC[C@]4(C)[C@H]3CC[C@@]21C` [PREGNENOLONE CARBONITRILE], the IC50 (on Bile salt export pump; in experiment [1]; in experiment [2]) was over 133 µM each time.

For `CCCc1nn(C)c2c(=O)[nH]c(-c3cc(S(=O)(=O)N4CCN(C)CC4)ccc3OCC)nc12` [SILDENAFIL CITRATE], the IC50 in experiment [3] was over 133 µM; on Bile salt export pump it was 132 µM; in experiment [1] it was over 133 µM.

`COc1c(O[C@@H]2O[C@H](CO)[C@@H](O)[C@H](O)[C@H]2O)cc2c(c1OC)-c1ccc(SC)c(=O)cc1[C@@H](NC(C)=O)CC2` [THIOCOLCHICOSIDE]: the IC50 at Bile salt export pump is over 133 µM.

`Cc1ccc(O)c([C@H](CCN(C(C)C)C(C)C)c2ccccc2)c1` [TOLTERODINE TARTRATE]: the IC50 in experiment [3], in experiment [1] and in experiment [2] was over 133 µM throughout.

For the compound `CCOC(=O)[C@H](CCc1ccccc1)N[C@@H](C)C(=O)N1[C@H](C(=O)O)C[C@H]2CCCC[C@@H]21` [TRANDOLAPRIL], the IC50 (at Bile salt export pump; in experiment [1]; in experiment [2]) was over 133 µM each time.

Consider `O=c1n(CCCN2CCN(c3cccc(Cl)c3)CC2)nc2ccccn12` [TRAZODONE HYDROCHLORIDE], for which the IC50 (on Bile salt export pump; in experiment [1]; in experiment [2]) was over 133 µM in each case.

For `O=c1n(CCCN2CCN(c3cccc(Cl)c3)CC2)nc2ccccn12` [TRAZODONE], the IC50 (on Bile salt export pump; in experiment [1]; in experiment [2]) was over 133 µM in each case.

As to `CC(C)[C@@H]1NC(=O)[C@H](C)OC(=O)[C@@H](C(C)C)NC(=O)[C@@H](C(C)C)OC(=O)[C@H](C(C)C)NC(=O)[C@H](C)OC(=O)[C@@H](C(C)C)NC(=O)[C@@H](C(C)C)OC(=O)[C@H](C(C)C)NC(=O)[C@H](C)OC(=O)[C@@H](C(C)C)NC(=O)[C@@H](C(C)C)OC1=O` [VALINOMYCIN], the IC50 in experiment [3], in experiment [1] and in experiment [2] was over 133 µM throughout.

As for `C[C@@H](c1ncncc1F)[C@](O)(Cn1cncn1)c1ccc(F)cc1F` [VORICONAZOLE], the IC50 in experiment [3], in experiment [1] and in experiment [2] was over 133 µM throughout.

Regarding `COC[C@H]1OC(=O)c2coc3c2[C@@]1(C)C1=C(C3=O)[C@@H]2CCC(=O)[C@@]2(C)C[C@H]1OC(C)=O` [WORTMANNIN], the IC50 in experiment [3] is 46.1 µM; in experiment [1] it was over 133 µM; in experiment [2] it was 63.2 µM.

With BIVALIRUDIN, the IC50 (in experiment [3]; at Bile salt export pump; in experiment [2]) was over 133 µM throughout.
